2 compounds from paper PMC2948233 (Organic & biomolecular chemistry, 2010) can be followed below.

The assay deals with T1, phosphopantetheinyl transferase Sfp (Bacillus subtilis, UniProt P39135).
T1 sequence (P39135 1-224): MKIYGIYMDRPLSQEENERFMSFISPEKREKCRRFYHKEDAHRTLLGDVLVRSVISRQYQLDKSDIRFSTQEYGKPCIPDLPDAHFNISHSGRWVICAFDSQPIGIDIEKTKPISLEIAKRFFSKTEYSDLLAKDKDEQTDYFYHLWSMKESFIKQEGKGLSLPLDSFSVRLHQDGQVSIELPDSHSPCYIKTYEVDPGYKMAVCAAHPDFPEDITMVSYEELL
In words: FRET-quench phosphopantetheinyl transferase assay. Type of assay: biochemical.

As for `N=C1Sc2ccccc2C2=NCCCN12` [PD 404,182], the IC50 (usually the concentration that gives 50% inhibition) was 3.2 µM. The figure for `Clc1ccc(C(c2ccc(Cl)cc2)n2cc[n+](CC(OCc3ccc(Cl)cc3Cl)c3ccc(Cl)cc3Cl)c2)cc1` (centres unmarked) [calmidazolium chloride] is 20 µM.
